# Laboratory results as given in US20240108570A1, “METHOD AND COMPOSITION FOR DELIVERING A COMPOUND THROUGH A BIOLOGICAL BARRIER” (priority 2012, published 2024).
# Key:
# ex vivo pig skin = type: in vitro ADME
# Experimental: FIG. 12 represents comparison of delivery of sodium fluorescein to ex vivo pig skin. Pig skin was sourced and prepared for drug treatment as described for FIG. 10. For EMP delivery, 50 μL of the payload solution (1 mg/mL sodium fluorescein) was gently mixed with or without 5 mg of either the ‘short’ or ‘long’ EMP preparations. The samples were then scraped onto the surface of the skin. Administration was achieved by massaging the solution for 30 s using small circular motions within a 3 cm 2 circular area. To maintain consistency between administrations, a small hand-held applicator was designed resulting in an application force of 0.25 N (as described in AU2012905650). After administration, the payload was left on the skin for 5 min followed by removal of excess solution with cotton swabs. The centre of the application area was excised using a 6 mm circular punch biopsy. A total of 6 samples were done per group. Each sample was stored at −20° C. prior to analysis. […] FIG. 12d represents fluorescence confocal microscopy mosaic images of the pig skin with topical application of sodium fluorescein only (no EMP). […] The images in FIGS. 12d to 12l have been pseudo-colored in greyscale, where black corresponds to 0 (min) fluorescence intensity and white corresponds to 255 (max) fluorescence intensity, as shown on the scale superimposed on FIG. 12l.
# [1] = test system: volar forearm skin of human volunteers; details: in vivo
# Source text: In both Examples 4 and 5, elongate microparticles (EMPs) were fabricated from silicon using deep reactive ion etching. Lithography was used to pattern a silicon wafer that was then coated with SU-8 photoresist. After a post exposure bake, the resist was developed in […]. The SU8 structures remaining served as a physical mask during etching, which were etched using a Bosch process. The etched EMPs were washed three times in acetone, followed by three washes in 100% ethanol and lastly three times in distilled water. Prior to application the EMPs were removed from the silicon wafer.
# The ability of silicon EMPs of various diameters to penetrate the skin was determined by application of a mixture of sodium fluorescein and EMPs to the volar forearm of four human, healthy volunteers using a plastic applicator as described in provisional patent application AU2012905650. 50 μL of the sodium fluorescein solution having a concentration of 1 mg/mL was mixed with 5 mg of silicon EMPs and applied to the forearm using a gentle massage motion with the applicator. […]
# Three different populations of EMPs were used to assess the influence of EMP diameter on penetration and delivery. […] Grouped data was analysed using a one-way ANOVA with a Tukey's multiple comparison test.
# skin of human volunteers = details: in vivo
# Experimental: Mixtures were formed by taking 50 μl of sodium fluorescein dye (1 mg/mL), with or without 5 mg of silica EMP. […] FIG. 18f refers to the sum of the total sodium fluorescein integrated density within the skin. The level of significance was accepted at p<0.05 based on a one-way ANOVA, Tukey's multiple comparison test.
# [2] = test system: freshly excised, non-diseased human skin; type: in vitro ADME
# Experimental: The results are illustrated in FIGS. 5 to 8.
# FIGS. 7 and 8 illustrate the effect of application forces on the penetration of sodium fluorescein in conjunction with ‘long’ EMPs. Measurements were made 15 minutes after application to freshly excised, non-diseased human skin (from female, Caucasian, abdominal plastic surgery patients). […] Application forces of 0.2N, 5N and 10N were all applied using a gloved finger on a scale. The excised skin is place on the scale and the finger is applied to the EMPs/skin until a weight is achieved on the scale corresponding to either 0.2, 5 or 10 N.) All forces are effective in improving penetration of sodium fluorescein into the stratum spinosum. There was an apparent optimum application force of 5N under the conditions of the tests.
# vaginal tracts of mice = details: mouse, in vivo
# Experimental: In these in vivo mouse experiments, a 10 μl quantity of sodium fluorescein (1 mg/ml) was pipetted into the vaginal tracts of mice. In one group of mice, dye application occurred only after prior application of a small quantity of EMP (5 mg). The dye solution was gently massaged with a rod-like applicator. Vaginal tracts were removed at sacrifice and mounted for cryosectioning.
# in vivo pig skin = test system: in vivo pig skin
# Experimental: FIG. 13 represents comparison of delivery of sodium fluorescein to in vivo pig skin. In vivo experiments were conducted on 6 female Landrace weaner pigs weighing approx. 10-15 kg (Centre for Advanced Animal Science, The University of Queensland Gatton Campus, Australia). The pigs were anaesthetized intramuscularly by co-administration of Butorphanol (0.15 mg/kg) and Zoletil (5 mg/kg) followed by intubation with isoflurane to maintain unconsciousness. Following anesthesia the flanks of the pigs were washed with soapy water and patted dry. The flank was then shaved gently using an electric razor. The flank was marked, to separate the application areas (2 cm diameter circles, 2 cm apart). Payload administration and amounts were done using the same parameters as for ex vivo. After all the groups/samples were applied and swabbed, the pig was turned over and the procedure repeated to the other flank (resulting in 12 samples per group). Finally, the pig was culled and the center of the application areas was excised using a 6 mm circular punch biopsy. Each sample was placed on dry-ice followed by storage at −20° C. prior to analysis.
# Experimental for excised human skin: Both ex vivo and in vivo tissue samples were analysed en face using fluorescence (excited at 488 nm) and reflectance (excited at 750 nm) confocal microscopy (Vivascope® 1500 Multilaser, Lucid Inc., USA). The microscope also consisted of a dermatoscope, which was used to image and position the skin prior to microscopy. The samples were optically sectioned at 1.5 μm intervals from the surface of the skin down to a depth of 150 μm. Each optical slice consisted of a focal area of 500×500 μm^2.
# In relation to the sodium fluorescein signal, an area 300×300 μm^2 in size was selected in the center of the image and the raw integrated density was measured throughout the entire stack. The data were then divided by the analysed area (9000 μm^2) resulting in the sodium fluorescein integrated density per μm^2.
# A mixture was formed of by taking 50 μl of sodium fluorescein dye (1 mg/mL) and mixed with or without 5 mg of silica EMP This mixture was applied to previously frozen or freshly excised human skin under varying conditions of EMP length and/or application force.
# The skin was stored at −20° C. and then brought to room temperature prior to use. […] It is measured by dividing the sodium fluorescein pixel intensity achieved with EMPs by the sodium fluorescein pixel intensity achieved without EMPs. […]
# Experimental for excised pig skin: Excised pig ears sourced from a local abattoir were washed with soap and water followed by rinsing. The ears were stored at −20° C. until required. The ears were thawed and then gently shaved to remove excessive hair, then rinsed and pat dried. The ventral side of the ear was then separated from the cartilage using a scalpel. The excised skin was pinned down on a cork-board maintaining slight tension across the surface. For EMP delivery, 50 μL of the payload solution (1 mg/mL sodium fluorescein, 0.01 mCi/mL vitamin A or 0.01 mCi/mL, vitamin B3 respectively) was gently mixed with 5 mg of either the ‘short’ or ‘long’ EMP preparations. The samples were then scraped onto the surface of the skin.
# Administration was achieved by massaging the payload mixture for 30 s using small circular motions within a 3 cm 2 circular area. […] After administration, the payload was left on the skin for 5 min followed by removal of excess solution with cotton swabs. The center of the application area was excised using a 6 mm circular punch biopsy. A total of 6 samples were done per group. Each sample was stored at −20° C. prior to analysis.
# The integrated density of sodium fluorescein is directly related to the concentration of the drug within the skin. […] In this case, skin was pinned out taut on a cork board, epidermal side uppermost. Tritiated compound was applied to the skin surface and left for 15 minutes. […]
smiles,measurement,setting,value
O=C([O-])c1ccccc1-c1c2ccc(=O)cc-2oc2cc([O-])ccc12.[Na+].[Na+] [sodium fluorescein],fluorescence detected below the surface of the skin,ex vivo pig skin,minimal fluorescence
same,amount of sodium fluorescein detected,[1],no significant difference
same,amount of sodium fluorescein penetrated (into the stratum spinosum),excised human skin,greatest amount
same,transdermal delivery of sodium fluorescein dye,excised human skin,greatly enhance
same,penetration of topically applied sodium fluorescein,skin of human volunteers,more lasting and deeper penetration
same,enhancement of penetration of sodium fluorescein,excised pig skin,superior ability
same,increase in delivery of sodium fluorescein dye across the stratum corneum,[2],several-fold increase
same,penetration depth within the epithelium,vaginal tracts of mice,about 60 μm
same,penetration depth within the epithelium relative to delivery in the absence of EMP,vaginal tracts of mice,more than 4 times
same,fluorescence detected below the surface of the skin,in vivo pig skin,Minimal fluorescence
same,sodium fluorescein signal,in vivo pig skin,greater signal
